Where a name gives a salt, the structure may show the parent alone.
The compounds below were run on ATGL-KO iPSCs (assay: High throughput iPSC chemical screening, Oil Red O (ORO) lipid accumulation). Conditions: not given.
Format: cell-based, mouse
Throughout, for Z-score: test concentration or dose not given here.

Compound	Z-score
CN[C@H](CC(C)C)C(=O)N[C@H]1C(=O)N[C@@H](CC(N)=O)C(=O)N[C@H]2C(=O)N[C@H]3C(=O)N[C@H](C(=O)N[C@H](C(=O)O)c4cc(O)cc(O)c4-c4cc3ccc4O)[C@H](O)c3ccc(c(Cl)c3)Oc3cc2cc(c3O[C@@H]2O[C@H](CO)[C@@H](O)[C@H](O)[C@H]2O[C@H]2C[C@](C)(N)[C@H](O)[C@H](C)O2)Oc2ccc(cc2Cl)[C@H]1O [Vancomycin hydrochloride]	−0.5906
Cytisine (−)	1.049

Same assay, conditions: glycolytic switch compounds

Compound	Rank in normalized ORO score from screen
Merbromin	743

Same assay, conditions: normalized ORO level vs DMSO-treated cells; compound present during 7 days differentiation, 96-well; negative = decrease in lipid accumulation

Compound	Z-score
COc1ccc(CCN(C)CCCC(C#N)(c2ccc(OC)c(OC)c2)C(C)C)cc1OC.Cl (stereo not drawn) [Verapamyl hydrochloride]	0.4436
Nc1ncnc2c1ncn2[C@@H]1O[C@H](CO)[C@@H](O)[C@@H]1O [Vidarabine]	−0.443
C=CC(N)CCC(=O)O (stereo not drawn) [Vigabatrin]	−0.7771
CC[C@]12CCCN3CCc4c(n(c5ccccc45)[C@@](O)(C(=O)OC)C1)[C@@H]32 [Vincamine]	−0.4826
O=c1cc(-c2ccc(O)cc2)oc2c([C@@H]3O[C@H](CO)[C@@H](O)[C@H](O)[C@H]3O)c(O)cc(O)c12 [Vitexin]	−0.0089
O=C(NCCNCC(O)COc1ccc(O)cc1)N1CCOCC1 (stereo not drawn) [Xamoterol hemifumarate]	−0.1402
Cc1cccc(C)c1N=C1NCCCS1 [Xylazine]	−1.0585
Cc1cc(C(C)(C)C)cc(C)c1CC1=NCCN1 [Xylometazoline hydrochloride]	0.7686
COC(=O)[C@@H]1[C@H]2C[C@H]3c4[nH]c5ccccc5c4CCN3C[C@@H]2CC[C@@H]1O [Yohimbine hydrochloride]	−1.0356
O.O=C(O)[C@@H]1[C@H]2C[C@H]3c4[nH]c5ccccc5c4CCN3C[C@@H]2CC[C@@H]1O [Yohimbinic acid monohydrate]	−0.0239
Nc1ccn([C@H]2CC[C@@H](CO)O2)c(=O)n1 [Zalcitabine]	2.323
CCCOc1ccccc1-c1nc2nn[nH]c2c(=O)[nH]1 [Zaprinast]	−0.4842
COc1cc(-c2ccc(=O)[nH]n2)ccc1OC(F)F [Zardaverine]	−0.6963
Cc1cn([C@H]2C[C@H](N=[N+]=[N-])[C@@H](CO)O2)c(=O)[nH]c1=O [Zidovudine, AZT]	−0.4063
CN(C)C/C=C(/c1ccc(Br)cc1)c1cccnc1 [Zimelidine dihydrochloride monohydrate]	−0.7577
Cc1cc(CC(=O)O)n(C)c1C(=O)c1ccc(Cl)cc1 [Zomepirac sodium salt]	0.8794
OCCN1CCN(CC/C=C2/c3ccccc3Sc3ccc(Cl)cc32)CC1 [Zuclopenthixol hydrochloride]	−1.8038
CC1=C2[C@H]3OC(=O)[C@@H](C)[C@@H]3CC[C@@]2(C)C=CC1=O [alpha-Santonin]	−0.8908
CC[N+]1(C)[C@@H]2CC[C@H]1CC(OC(=O)[C@@H]1CC[C@@](C(=O)OC3C[C@H]4CC[C@@H](C3)[N+]4(C)CC)(c3ccccc3)c3ccccc31)C2.[Cl-].[Cl-] (stereo partly drawn) [beta-Belladonnine dichloroethylate]	−0.7978
(S)-(−)-Atenolol	0.7787
(S)-propranolol hydrochloride	0.368
(−)-MK 801 hydrogen maleate	−0.2074

Compound	Z-score
(−)-Quinpirole hydrochloride	1.311
Alverine citrate salt	−0.9516
Antimycin A	30.555
Avermectin B1	−0.9704
Beta-Escin	−1.7261
Bromocryptine mesylate	−0.775
Butirosin disulfate salt	0.2121
Carbinoxamine maleate salt	0.218
Clofilium tosylate	13.6063
Colistin sulfate	−0.5041
Cotinine (−)	0.644
Cyanocobalamin	−1.3236
Deptropine citrate	−0.0889
Dihydroergotamine tartrate	−0.7032
Dihydroergotoxine mesylate	1.217
Eburnamonine (−)	−1.0688
Foliosidine	−0.7349
Guanadrel sulfate	−0.4661
Helveticoside	−0.1112
Ifenprodil tartrate	0.8399
Iobenguane sulfate	−0.2715
Iproniazide phosphate	−0.4106

Compound	Z-score
Isoetharine mesylate salt	−0.7902
Ketanserin tartrate hydrate	1.256
Lycorine hydrochloride	21.7885
Mephentermine hemisulfate	0.04889
Merbromin	0.2933
Pizotifen malate	−1.2994
Pridinol methanesulfonate salt	1.97
Pyrantel tartrate	−0.1933
Retrorsine	0.08676
S(−)Eticlopride hydrochloride	−0.7335
Solanine alpha	−1.7798
Spiramycin	−1.0612
Terbutaline hemisulfate	2.278
Thioproperazine dimesylate	−0.4051
Timolol maleate salt	0.4592
Trimeprazine tartrate	−1.418
Trimipramine maleate salt	−0.138
Tropicamide	0.5083
Tyloxapol	0.9571
Verteporfin	−0.2331
Viomycin sulfate	1.64
Vitamin K2	0.6129

Source: patent US9393221B2, “Methods and compounds for reducing intracellular lipid storage” (THE GENERAL HOSPITAL CORPORATION, priority 2011, dated 2016)
